Measured values taken from patent US12686846B2, “Plant sweet and yeast MSF transporter capable of transporting different sugars simultaneously” (THE BOARD OF TRUSTEES OF THE UNIVERSITY OF ILLINOIS, priority 2020, dated 2026).

Experiments:
Type in all cases: cell-based
[1] = target: T1, Arabidopsis thaliana AtSWEET1 transporter, wild type, SEQ ID NO: 1 (Arabidopsis thaliana, UniProt Q8L9J7); experiment: C14 labeled sugar uptake assay, SR8D8 expressing AtSWEET1; settings: in words; FIGS. 7B and 7D legend: FIG. 7G
T1 construct: whole-cell 14C sugar uptake
T1 sequence (Q8L9J7 1-247): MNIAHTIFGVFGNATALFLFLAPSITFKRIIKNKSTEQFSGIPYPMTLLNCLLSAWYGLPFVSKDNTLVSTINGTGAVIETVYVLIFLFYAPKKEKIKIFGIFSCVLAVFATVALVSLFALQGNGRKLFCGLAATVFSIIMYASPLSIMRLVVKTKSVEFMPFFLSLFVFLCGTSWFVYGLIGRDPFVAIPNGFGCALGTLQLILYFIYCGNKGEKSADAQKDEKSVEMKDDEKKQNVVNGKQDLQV
Procedure: (§1) FIG. 7A illustrates sugar uptake kinetics by SR8D8. FIG. 7B illustrates sugar uptake kinetics by SR8D8 expressing AtSWEET1. FIG. 7C illustrates sugar uptake kinetics by SR8D8 expressing ScGal2. FIG. 7D illustrates sugar uptake kinetics by SR8D8 expressing AtSWEET7. FIG. 7E illustrates sugar uptake kinetics by SR8D8 expressing LST1_205437. Initial xylose uptake (20 s) was measured at 30° C. over a concentration range of 1 to 500 mM xylose. FIG. 7F illustrates sugar uptake kinetics by SR8D8. FIG. 7G illustrates sugar uptake kinetics by SR8D8 expressing AtSWEET1. FIG. 7H illustrates sugar uptake kinetics by SR8D8 expressing ScGal2. FIG. 7I illustrates sugar uptake kinetics by SR8D8 expressing AtSWEET7. FIG. 7J illustrates sugar uptake kinetics by SR8D8 expressing LST1_205437. Initial glucose uptake (5 s) was measured at 30° C. over a concentration range of 0.2 to 100 mM glucose. […]
(§2) A xylose fermenting S. cerevisiae yeast (SR8) with HXT1-7Δ, GAL2Δ deletions was used for transporter screening and characterization (SR8D8). […] Biomass was calculated from the OD600 measured using a Biomate 5 UV-visible spectrophotometer (Fisher, NY, USA). All growth rates were measured using a Bioscreen C plate reader system (Growth Curves USA, Piscataway, NJ, USA). […]
(§3) Uptake was measured at sugar concentrations 0.2, 1, 5, 25, and 100 mM for glucose and 1, 5, 25, 66, 100, 200, and 500 mM for xylose. […]

[2] = target: T2, Lipomyces starkeyi LST1_205437 transporter, wild type, SEQ ID NO: 4 (Lipomyces starkeyi, UniProt A0A1E3QE37); experiment: C14 labeled sugar uptake assay (zero-trans influx), SR8D8 expressing LST1_205437; settings: initial glucose uptake (5 s), 30° C., pH 6.5; cell wet weight; ± SEM
T2 construct: whole-cell 14C sugar uptake
T2 sequence (A0A1E3QE37 1-603): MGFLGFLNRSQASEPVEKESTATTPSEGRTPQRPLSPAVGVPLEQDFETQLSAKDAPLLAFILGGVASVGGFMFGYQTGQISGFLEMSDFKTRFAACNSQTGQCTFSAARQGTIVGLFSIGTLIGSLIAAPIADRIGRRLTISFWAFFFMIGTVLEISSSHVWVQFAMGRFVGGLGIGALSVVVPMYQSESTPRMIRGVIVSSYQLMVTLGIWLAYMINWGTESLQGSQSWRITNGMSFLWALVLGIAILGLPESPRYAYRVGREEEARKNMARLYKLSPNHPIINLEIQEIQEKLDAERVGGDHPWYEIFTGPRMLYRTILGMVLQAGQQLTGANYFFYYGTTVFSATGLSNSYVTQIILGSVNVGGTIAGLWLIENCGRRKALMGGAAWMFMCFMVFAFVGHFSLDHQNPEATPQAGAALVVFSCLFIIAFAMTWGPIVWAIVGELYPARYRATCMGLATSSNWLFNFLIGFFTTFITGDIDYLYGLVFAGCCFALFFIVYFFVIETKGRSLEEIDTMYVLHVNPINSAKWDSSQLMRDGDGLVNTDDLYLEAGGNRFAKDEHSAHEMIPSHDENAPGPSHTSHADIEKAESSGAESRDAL
Procedure: FIG. 7A illustrates sugar uptake kinetics by SR8D8. FIG. 7B illustrates sugar uptake kinetics by SR8D8 expressing AtSWEET1. FIG. 7C illustrates sugar uptake kinetics by SR8D8 expressing ScGal2. FIG. 7D illustrates sugar uptake kinetics by SR8D8 expressing AtSWEET7. FIG. 7E illustrates sugar uptake kinetics by SR8D8 expressing LST1_205437. Initial xylose uptake (20 s) was measured at 30° C. over a concentration range of 1 to 500 mM xylose. FIG. 7F illustrates sugar uptake kinetics by SR8D8. FIG. 7G illustrates sugar uptake kinetics by SR8D8 expressing AtSWEET1. FIG. 7H illustrates sugar uptake kinetics by SR8D8 expressing ScGal2. FIG. 7I illustrates sugar uptake kinetics by SR8D8 expressing AtSWEET7. FIG. 7J illustrates sugar uptake kinetics by SR8D8 expressing LST1_205437. Initial glucose uptake (5 s) was measured at 30° C. over a concentration range of 0.2 to 100 mM glucose. Curve fitting for Michaelis-Menten kinetics was applied to data of three independent measurements at each concentration.
A xylose fermenting S. cerevisiae yeast (SR8) with HXT1-7Δ, GAL2Δ deletions was used for transporter screening and characterization (SR8D8). SR8D8 was grown in YPE medium/plate (10 g/L yeast extract, 20 g/L peptone, and 5 g/L ethanol). […] Biomass was calculated from the OD600 measured using a Biomate 5 UV-visible spectrophotometer (Fisher, NY, USA). All growth rates were measured using a Bioscreen C plate reader system (Growth Curves USA, Piscataway, NJ, USA). […]
SR8D8 containing the respective plasmid was grown on selective YPE medium to an OD600 of 1-1.5, harvested by centrifugation, and washed twice in ice-cold uptake buffer (100 mM potassium phosphate, pH 6.5). […] Radioactivity was analyzed in a Beckman-Coulter LS6500 multi-purpose liquid scintillation counter (Beckman-Coulter, CA, USA).
Uptake was measured at sugar concentrations 0.2, 1, 5, 25, and 100 mM for glucose and 1, 5, 25, 66, 100, 200, and 500 mM for xylose. Inhibition of xylose uptake by glucose was measured at 25, 66, and 100 mM xylose with additional 25 and 100 mM unlabeled glucose.

[3] = target: T3, Arabidopsis thaliana AtSWEET7 transporter, wild type (Table 2: SEQ ID NO: 3; FIG. 12: SEQ ID NO:2) (Arabidopsis thaliana, UniProt Q8LBF7); experiment: C14 labeled sugar uptake assay (zero-trans influx), SR8D8 expressing AtSWEET7; settings: initial glucose uptake (5 s), 30° C., pH 6.5; cell wet weight; ± SEM
T3 construct: expressed in transfected cells; host or cells: S. cerevisiae SR8D8 (SR8 with HXT1-7 and GAL2 deleted), plasmid p42K-GPD1p-CYC1t
T3 sequence (Q8LBF7 1-258): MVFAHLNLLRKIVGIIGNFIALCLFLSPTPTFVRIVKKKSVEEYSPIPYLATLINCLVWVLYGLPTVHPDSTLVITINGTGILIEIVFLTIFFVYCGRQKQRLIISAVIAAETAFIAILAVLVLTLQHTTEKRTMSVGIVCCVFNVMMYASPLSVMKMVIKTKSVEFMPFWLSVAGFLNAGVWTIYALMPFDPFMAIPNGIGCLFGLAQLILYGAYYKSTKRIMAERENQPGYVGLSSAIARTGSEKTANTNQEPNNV
Procedure: as §1, §2, §3

OC[C@H]1OC(O)[C@H](O)[C@@H](O)[C@@H]1O (stereo partly drawn) [Glucose]
glucose transport kinetics [1]: transports glucose more efficiently as compared to AtSWEET7 | Vmax (glucose) [2]: 47.0 ± 2.6 nmol/min/mg | Vmax (glucose) [3]: 110.3 ± 7.2 nmol/min/mg
